Assay results taken from patent EP0876402B1, “GROWTH HORMONE SECRETAGOGUE RECEPTOR FAMILY” (MERCK & CO., INC., priority 1995, dated 1997).

Test system: swine growth hormone secretagogue receptor (GHSR) Type I, clone 7-3, expressed transiently in COS-7 cells
Assay: 35S-labeled Compound A binding assay on crude membranes of transfected COS-7 cells

SMILES	specific binding displaced (displacement of ^35S-Compound A binding by 50 nM unlabeled Compound A, 60 min)	Kd (saturation binding of ^35S-Compound A, clone 7-3 expressed transiently in COS-7 cells, 20°C, 1 hr)
CC(C)(N)C(=O)N[C@H](COCc1ccccc1)C(=O)N1CCC2(CC1)CN(S(C)(=O)=O)c1ccccc12 [Compound A]	> 90%	
CC(C)(N)C(=O)N[C@H](COCc1ccccc1)C(=O)N1CCC2(CC1)CN(S(C)(=O)=O)c1ccccc12 [^35S-Compound A]		~0.2 nM
